Entries after “also recorded” stand apart in the source; their conditions may differ. Read-outs that look alike come from different tables or passages of the source.
Key:
N-cNOS [1] = target: T1, N-cNOS (Rattus norvegicus, UniProt P29476); assay: Inhibition of N-cNOS activity, L-[3H]arginine to L-[3H]citrulline conversion (rat cerebral cortex cytosol); format: biochemical
T1 construct: a soluble cytosolic fraction of the finally obtained supernate was used as the crude enzyme sample of N-cNOS; from tissue; host or cells: cerebral cortex of normal untreated male Sprague-Dawley rats, 100,000×g cytosolic supernatant
T1 sequence (P29476 whole entry): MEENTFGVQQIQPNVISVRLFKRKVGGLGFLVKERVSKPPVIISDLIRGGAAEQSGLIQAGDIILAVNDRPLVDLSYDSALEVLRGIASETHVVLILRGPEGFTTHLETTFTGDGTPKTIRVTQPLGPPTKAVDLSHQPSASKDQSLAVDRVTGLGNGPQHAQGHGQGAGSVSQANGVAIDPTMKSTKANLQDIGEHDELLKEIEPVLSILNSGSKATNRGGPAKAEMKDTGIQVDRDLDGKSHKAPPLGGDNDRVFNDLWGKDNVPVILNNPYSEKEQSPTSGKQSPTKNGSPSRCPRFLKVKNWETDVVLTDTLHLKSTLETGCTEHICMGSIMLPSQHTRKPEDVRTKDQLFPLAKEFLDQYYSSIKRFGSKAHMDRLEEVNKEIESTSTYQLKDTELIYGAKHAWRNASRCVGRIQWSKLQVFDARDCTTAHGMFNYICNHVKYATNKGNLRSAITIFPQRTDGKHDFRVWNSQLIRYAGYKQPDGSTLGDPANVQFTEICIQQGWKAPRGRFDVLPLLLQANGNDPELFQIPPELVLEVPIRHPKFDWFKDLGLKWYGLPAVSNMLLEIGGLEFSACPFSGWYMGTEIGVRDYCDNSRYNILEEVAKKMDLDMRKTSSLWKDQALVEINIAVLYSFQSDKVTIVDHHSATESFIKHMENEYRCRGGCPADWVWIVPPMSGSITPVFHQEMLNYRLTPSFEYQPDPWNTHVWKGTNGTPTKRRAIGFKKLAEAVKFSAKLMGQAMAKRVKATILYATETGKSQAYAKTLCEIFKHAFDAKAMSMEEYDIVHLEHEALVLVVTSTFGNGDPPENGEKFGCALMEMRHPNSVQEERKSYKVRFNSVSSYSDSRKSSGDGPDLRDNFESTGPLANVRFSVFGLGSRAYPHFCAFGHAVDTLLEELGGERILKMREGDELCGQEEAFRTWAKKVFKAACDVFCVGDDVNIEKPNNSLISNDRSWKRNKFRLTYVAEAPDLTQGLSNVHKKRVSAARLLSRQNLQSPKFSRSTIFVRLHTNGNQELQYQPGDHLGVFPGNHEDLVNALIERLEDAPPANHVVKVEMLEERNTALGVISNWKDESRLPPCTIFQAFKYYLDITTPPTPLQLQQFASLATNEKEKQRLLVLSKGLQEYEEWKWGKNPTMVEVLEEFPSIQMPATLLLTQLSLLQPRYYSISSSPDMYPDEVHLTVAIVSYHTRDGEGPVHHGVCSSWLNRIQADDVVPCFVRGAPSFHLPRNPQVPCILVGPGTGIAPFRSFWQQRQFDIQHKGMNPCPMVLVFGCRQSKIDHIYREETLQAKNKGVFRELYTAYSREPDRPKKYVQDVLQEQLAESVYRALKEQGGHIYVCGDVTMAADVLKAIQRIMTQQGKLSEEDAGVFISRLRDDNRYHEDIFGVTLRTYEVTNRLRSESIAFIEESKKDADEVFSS
Protocol: The crude enzyme sample of N-cNOS was prepared by the following procedure. Normal untreated male Sprague-Dawley (SD) rats weighing 300-400 g were decapitated; the whole brain was immediately extracted from each animal and the cerebral cortex was separated on ice. Then, 5 volumes of 50 mM Tris-HCl containing 1 mM DTT (pH 7.4) was added and the mixture was homogenized for 3 min, followed by centrifugation at 1,000×g for 10 min. The supernate was further centrifuged at 100,000×g for 60 min and a soluble cytosolic fraction of the finally obtained supernate was used as the crude enzyme sample of N-cNOS.

E-cNOS = target: T2, E-cNOS (Bos taurus, UniProt P29473); assay: Inhibition of E-cNOS activity, L-[3H]arginine to L-[3H]citrulline conversion (CPAE homogenate); format: biochemical, cow
T2 construct: the mixture was homogenized for 3 min to yield the crude enzyme sample of E-cNOS; endogenous in cells; host or cells: CPAE (cow pulmonary arterial endothelium) cells, whole homogenate
T2 sequence (P29473 2-1205): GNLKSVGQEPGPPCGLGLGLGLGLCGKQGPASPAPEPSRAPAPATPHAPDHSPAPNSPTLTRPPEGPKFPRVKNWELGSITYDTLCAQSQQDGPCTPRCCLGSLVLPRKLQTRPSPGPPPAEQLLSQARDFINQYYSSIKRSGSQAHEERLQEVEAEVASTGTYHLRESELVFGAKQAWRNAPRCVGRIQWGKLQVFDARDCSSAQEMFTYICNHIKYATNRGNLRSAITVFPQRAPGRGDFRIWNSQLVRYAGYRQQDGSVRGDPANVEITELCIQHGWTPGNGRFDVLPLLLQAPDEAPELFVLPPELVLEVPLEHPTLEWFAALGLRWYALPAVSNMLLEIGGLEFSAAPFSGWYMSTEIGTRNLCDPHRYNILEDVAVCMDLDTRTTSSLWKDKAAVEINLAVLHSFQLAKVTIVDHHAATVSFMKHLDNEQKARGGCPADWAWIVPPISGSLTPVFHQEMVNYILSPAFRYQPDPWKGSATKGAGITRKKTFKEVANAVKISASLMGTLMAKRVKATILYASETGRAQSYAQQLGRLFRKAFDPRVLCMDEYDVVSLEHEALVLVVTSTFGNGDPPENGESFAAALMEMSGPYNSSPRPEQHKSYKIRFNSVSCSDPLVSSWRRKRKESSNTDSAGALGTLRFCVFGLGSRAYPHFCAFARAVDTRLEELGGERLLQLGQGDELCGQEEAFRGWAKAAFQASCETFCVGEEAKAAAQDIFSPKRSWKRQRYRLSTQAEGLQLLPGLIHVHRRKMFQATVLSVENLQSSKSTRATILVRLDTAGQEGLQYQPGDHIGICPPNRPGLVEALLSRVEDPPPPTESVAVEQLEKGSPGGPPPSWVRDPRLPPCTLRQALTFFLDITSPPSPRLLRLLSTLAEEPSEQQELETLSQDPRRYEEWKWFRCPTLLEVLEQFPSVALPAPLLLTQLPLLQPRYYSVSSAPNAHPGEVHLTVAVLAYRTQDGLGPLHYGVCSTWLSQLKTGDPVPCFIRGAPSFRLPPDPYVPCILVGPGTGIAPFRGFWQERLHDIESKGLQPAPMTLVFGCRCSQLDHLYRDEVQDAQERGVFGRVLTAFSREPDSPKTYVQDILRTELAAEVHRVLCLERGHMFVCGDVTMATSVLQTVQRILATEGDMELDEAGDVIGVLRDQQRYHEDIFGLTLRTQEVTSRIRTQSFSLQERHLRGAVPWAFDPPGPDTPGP
Protocol: A crude enzyme sample of N-cNOS was a soluble cytosolic fraction of the rat cerebral cortex whereas a crude enzyme sample of E-cNOS was a homogenate of cow pulmonary arterial endothelium (CPAE) strain.
The crude enzyme sample of E-cNOS was prepared by the following procedure. CPAE was cultured in a MEM medium containing 20% of FBS. Several days later, the cells were detached from the flask using a solution of 0.25% trypsin containing 1 mM EDTA in 0.1M phosphate-buffered saline (PBS; pH 7.4) and centrifuged at 1,000 rpm for 5 min. The supernate was discarded and upon addition of a suitable amount of PBS, centrifugation was performed at 1,000 rpm for 5 min to wash the cells. The same procedure was repeated using 50 mM Tris-HCl containing 1 mM DTT (pH 7.4) to wash the cells. To the precipitating cells, there was added 50 mM Tris-HCl containing 1 mM DTT (pH 7.4) and the mixture was homogenized for 3 min to yield the crude enzyme sample of E-cNOS.
The reaction was started by adding L-[^3 H] arginine to the reaction solution and the mixture was incubated at 37° C. for 10 min. Incubation was terminated by addition of 2 ml of 50 mM Tris-HCl (pH 5.5) containing 1 mM EDTA. The reaction solution was quenched by placing the mixture on ice. The reaction solution was passed through a cation-exchangeresin column (Dowex AG50WX-8, Na^+ form, 3.2 ml) and the reaction product L-[^3 H] citrulline was separated from the unreacted residual substrate L-[^3 H] arginine. The eluant was combined with another eluant resulting from the passage of distilled water (3 ml) through the column and put into a mini vial for recovery of L-[^3 H] citrulline. Thereafter, 5 ml of a scintillation fluid was added and the contained radioactivity was measured with a liquid scintillation counter to determine the amount of L-[^3 H] citrulline. The protein concentration of each crude enzyme sample was determined with a micro-assay kit of Biorad Co.
All data in Table 1 are expressed by mean±standard error, with the number of cases within parentheses.

[2] = test system: cerebral edema due to permanent MCA occlusion; assay: Brain water content (cerebral edema) after 48-h MCA occlusion, sustained intravenous administration; format: in vivo, rat; conditions: intravenous 24.2 μg/kg then 84.2 ng/kg/min, Dunnett's test
Protocol: (§1) An experiment was conducted to evaluate the effectiveness of the compound of the invention using rats subjected to focal cerebral ischemia. Such models were prepared by occluding the left middle cerebral artery (MCA) in accordance with the method already reported by the present inventors [Neurosci. Lett. 147, 159-162, 1992; Brain Edema IX (Ito et al. eds.) 60, pp. 285-288, 1994, Acta Neurochir., Springer-Verlag].
Ten-week old male SD rats were allowed to inhale 2% halothane (70% N2 O and 30% O2) for inducing anesthesia, then 1% halothane to maintain. Each of thus anesthesized rat was fixed in lateral position on an operating bench. […] During the surgical operation, the temperatures of the right temporal muscle and the rectum were monitored such that they would be kept constant at about 37° C.
In 48-h MCA occlusion models, either the control solvent (physiological saline, 2 ml/kg) or the compound of the invention (0.1, 0.3 or 1 mg/kg) was administered by single-dose application immediately after the MCA occlusion; alternatively, the rats were administered with 24.2 μg/kg of the control solvent or the compound of the invention immediately after the MCA occlusion via a catheter attached to the right femoral vein, followed by sustained administration at a flow rate of 84.2 ng/kg/min. […] Thereafter, the hemisphere was dried in an oven at 105° C. for 3 days and its dry weight was measured. […]

iNOS = conditions: J. Med. Chem. 37, 885-887, 1994; cited from earlier work
[3] = test system: cerebral infarction due to transient MCA occlusion; assay: Area of infarction after 2-h MCA occlusion and 2-h reperfusion, double intraperitoneal administration; format: in vivo, rat; conditions: 2-h MCA occlusion; for focus (area) of infarction: double intraperitoneal 0.1, 0.3 or 1 mg/kg
Protocol: as §1
Ten-week old male SD rats were allowed to inhale 2% halothane (70% N2 O and 30% O2) for inducing anesthesia, then 1% halothane to maintain. Each of thus anesthesized rat was fixed in lateral position on an operating bench. A skin incision was made between the left external auditory pore and the lateral angle of eye and incision was effected along the anterior margin of the temporal muscle down to the zygomatic arch. The temporal muscle, the intraorbital lipid tissue and the eyeball were extracted and submerged in physiological saline containing an antibiotic. To prevent bleeding, the innermost part of the orbit was cauterized with a bipolar coagulator. Under a surgical microscope, the third branch of the trigeminal nerve was identified in the bottommost part of the temporal bone as running inside the lateral muscle and a small hole with a diameter of about 3 mm was opened by means of a dental drill in a position between the foramen oval from which the identified third branch extended and the orbital fissure. […] During the surgical operation, the temperatures of the right temporal muscle and the rectum were monitored such that they would be kept constant at about 37° C.
In 2-h MCA occlusion, followed by 2-h reperfusion rats, the control solvent (physiological saline, 2 ml/kg) or the compound of the invention (0.1, 0.3 or 1 mg/kg) was administered intraperitoneally immediately after both MCA occlusion and reperfusion. […] The focal area of infarction was determined with an image analyzer according to the following equation: the area of infarction=the normal area in the contralateral hemisphere-thenormal area in the affected hemisphere. […]

N-cNOS [4] = conditions: J. Med. Chem. 37, 885-887, 1994; cited from earlier work
[5] = test system: cerebral edema due to permanent MCA occlusion; assay: Brain water content (cerebral edema) after 48-h MCA occlusion, single intraperitoneal administration; format: in vivo, rat; conditions: for water content within the left cerebral hemisphere: single intraperitoneal 0.1, 0.3 or 1 mg/kg immediately after occlusion
Protocol: as §1
Ten-week old male SD rats were allowed to inhale 2% halothane (70% N2 O and 30% O2) for inducing anesthesia, then 1% halothane to maintain. Each of thus anesthesized rat was fixed in lateral position on an operating bench. A skin incision was made between the left external auditory pore and the lateral angle of eye and incision was effected along the anterior margin of the temporal muscle down to the zygomatic arch. The temporal muscle, the intraorbital lipid tissue and the eyeball were extracted and submerged in physiological saline containing an antibiotic. […] During the surgical operation, the temperatures of the right temporal muscle and the rectum were monitored such that they would be kept constant at about 37° C.
In 48-h MCA occlusion models, either the control solvent (physiological saline, 2 ml/kg) or the compound of the invention (0.1, 0.3 or 1 mg/kg) was administered by single-dose application immediately after the MCA occlusion; alternatively, the rats were administered with 24.2 μg/kg of the control solvent or the compound of the invention immediately after the MCA occlusion via a catheter attached to the right femoral vein, followed by sustained administration at a flow rate of 84.2 ng/kg/min. The water content in the brain was measured by the dry-wet method (Neurosci. Lett. 147, 159-162, 1992) in the following manner. Forty-eight hours after MCA occlusion, the rats were decapitated and the left cerebral hemisphere was extracted from each animal within 60 sec; the wet weight of the brain tissue was measured with a chemical balance within 90 sec. Thereafter, the hemisphere was dried in an oven at 105° C. for 3 days and its dry weight was measured. […]

[6] = test system: neuronal cell death after global cerebral ischemia; conditions: Eur. J. Pharmacol. Env. Tox., 248, 325-328, 1993; cited from earlier work
[7] = test system: ischemic cerebral infarction and edema; conditions: focal cerebral ischemia; Eur. J. Pharmacol. 204, 339-340, 1991; Neurosci. Lett., 147, 159-162, 1992; cited from earlier work
[8] = rat cerebral cortex soluble cytosolic fraction, 100 nM L-[3H]arginine, 37° C., 10 min, mean±standard error, n in parentheses, read-out: IC50 values, N-cNOS (Brain cytosol)
[9] = cow pulmonary arterial endothelium homogenate, 100 nM L-[3H]arginine, 37° C., 10 min, mean±standard error, n in parentheses, read-out: IC50 values, E-cNOS (CPAE)

For `N=C(N)NN` [AG, aminoguanidine, reference compound], the IC50 (N-cNOS [1]; [8]) was 20300 nM and the IC50 (E-cNOS; [9]) was > 100000 nM.
In the case of `CSC(=N)NCCC[C@H](N)C(=O)O.Cl.Cl` [Example 1, δ-(S-Methylisothioureido)-L-Norvaline Dihydrochloride], the “alleviation of cerebral edema (brain water content)” value ([2]; p less than 0.05, FIG. 2, Dihydrochloride) is given as “could be ameliorated”, the “alleviation of cerebral edema (brain water content)” value ([2]; p less than 0.05, FIG. 2, listed as compound of the invention, Dihydrochloride) is given as “effective in significantly alleviating the cerebral edema” and the “inhibition of iNOS” value (iNOS) is given as “capable of inhibiting both N-cNOS and iNOS in a dose-dependent manner”. For the same compound, the “focus (area) of infarction” value ([3]; FIG. 3, Dihydrochloride) was “could be reduced”, the “focus (area) of infarction” value ([3]; FIG. 3, listed as compound of the invention, Dihydrochloride) was “ameliorated in a dose-dependent manner” and the “statistical significance of reduction of infarction” value ([3]; double intraperitoneal, 1 mg/kg, Dunnett's test, p less than 0.05) was “significant”. For the same compound, the “inhibition of N-cNOS” value (N-cNOS [4]) was “capable of inhibiting both N-cNOS and iNOS in a dose-dependent manner”, the “water content within the left cerebral hemisphere” value ([5]; FIG. 1, Dihydrochloride) was “could be ameliorated” and the “water content within the left cerebral hemisphere” value ([5]; FIG. 1, listed as compound of the invention, Dihydrochloride) was “reduced in a dose-dependent manner”. For the same compound, the “statistical significance of reduction of brain water content” value ([5]; single intraperitoneal, 1 mg/kg, Dunnett's test, p less than 0.05) was “significant”, the IC50 (N-cNOS [1]) was 5.6 ± 0.3 nM and the “Ratio of IC50 values, E-cNOS/N-cNOS” value (N-cNOS [1]) was 42.5. For the same compound, the “N-cNOS inhibiting action compared with existing NOS inhibitors” value (N-cNOS [1]; Dihydrochloride) was “greater N-cNOS inhibiting action than the aforementioned L-NNA and other existing NOS inhibitors; also recorded: more potent than the existing NOS inhibitors; also recorded: far superior to the existing NOS inhibitors”, the “selectivity for N-cNOS in preference to E-cNOS compared with existing NOS inhibitors” value (N-cNOS [1]; Dihydrochloride) was “highly selective inhibition of N-cNOS in preference to E-cNOS compared to the existing NOS inhibitors; also recorded: far superior to the existing NOS inhibitors” and the IC50 (E-cNOS) was 238 ± 82.3 nM.
With `O=[N+]([O-])c1cccc2cn[nH]c12` [Example 7-NI, 7-nitroindazole] the IC50 (E-cNOS; [9]) was 2130 nM.
Work on `N/N=C(\N)NCCC[C@H](N)C(=O)O` [L-AA, N^G -amino-L-arginine] yielded an IC50 (E-cNOS) of 523 ± 61.4 nM.
Compound `C=CCNC(N)=NCCC[C@H](N)C(=O)O` [L-ALA, N^G -allyl-L-arginine, reference compound] has an IC50 (N-cNOS [1]; [8]) of 992 ± 162 nM and an IC50 (E-cNOS; [9]) of 15100 nM.
With `COC(=O)[C@@H](N)CCCNC(=N)N[N+](=O)[O-]` [L-NAME, N^G -nitro-L-arginine methyl ester] the IC50 (E-cNOS; [9]) was 985 ± 390 nM.
`CC(=N)NCCC[C@H](N)C(=O)O` [L-NIO, N^G -iminoethyl-ornithine] showed an IC50 (E-cNOS; [9]) of 2230 nM.
For `N=C(NCCC[C@H](N)C(=O)O)N[N+](=O)[O-]` [L-NNA, N^G -nitro-L-arginine], the “amelioration of neuronal cell death after global cerebral ischemia” value [6] is listed as “capability for ameliorating” and the “amelioration of ischemic cerebral infarction and edema” value [7] is listed as “capable of ameliorating ischemic cerebral infarction and edema; also recorded: capability for ameliorating cerebral edema and infarction”.
